Reference: patent publication US10647684B2, “2-aminopyrimidine derivatives for the treatment of viral infections” (Janssen Sciences Ireland Unlimited Company, priority 2013, dated 2020)

How the values were obtained:
Format in all cases: cell-based
human TLR8 = target: T1, human TLR8 (Homo sapiens, UniProt Q9NR97); test: TLR8 cellular reporter assay (HEK293, NFκB-luc); settings: lowest effective concentration; HEK293 transiently transfected with TLR8 and NFκB-luc; 6 hours incubation
T1 construct: expressed in transfected cells; host or cells: HEK293
T1 sequence (Q9NR97 27-1041): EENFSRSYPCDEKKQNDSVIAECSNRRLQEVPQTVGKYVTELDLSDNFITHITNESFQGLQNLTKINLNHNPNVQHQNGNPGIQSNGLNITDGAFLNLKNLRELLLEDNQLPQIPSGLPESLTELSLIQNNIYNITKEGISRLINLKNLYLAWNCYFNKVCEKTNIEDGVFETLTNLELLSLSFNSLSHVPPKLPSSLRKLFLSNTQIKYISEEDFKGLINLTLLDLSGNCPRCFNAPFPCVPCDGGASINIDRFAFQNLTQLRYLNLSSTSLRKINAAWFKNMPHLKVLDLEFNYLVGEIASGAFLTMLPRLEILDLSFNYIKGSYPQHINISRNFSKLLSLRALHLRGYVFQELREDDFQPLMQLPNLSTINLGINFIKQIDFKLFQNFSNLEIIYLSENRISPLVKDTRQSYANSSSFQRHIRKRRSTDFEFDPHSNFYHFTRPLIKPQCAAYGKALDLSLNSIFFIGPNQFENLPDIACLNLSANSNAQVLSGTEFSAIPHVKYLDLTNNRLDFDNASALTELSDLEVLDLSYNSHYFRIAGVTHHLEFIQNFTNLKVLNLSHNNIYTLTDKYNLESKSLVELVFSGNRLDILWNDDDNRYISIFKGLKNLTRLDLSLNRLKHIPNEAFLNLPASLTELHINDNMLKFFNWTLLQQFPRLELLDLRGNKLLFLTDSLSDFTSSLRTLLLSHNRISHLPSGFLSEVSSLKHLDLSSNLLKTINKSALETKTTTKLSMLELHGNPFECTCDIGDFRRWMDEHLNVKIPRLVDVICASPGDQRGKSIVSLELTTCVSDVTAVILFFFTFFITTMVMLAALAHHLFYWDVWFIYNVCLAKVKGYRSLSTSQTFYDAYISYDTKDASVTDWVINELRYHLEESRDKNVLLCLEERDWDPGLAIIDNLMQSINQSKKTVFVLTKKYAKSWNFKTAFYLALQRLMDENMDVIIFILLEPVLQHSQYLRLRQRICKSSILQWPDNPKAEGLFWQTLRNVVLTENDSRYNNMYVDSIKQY
Method: (§1) The ability of compounds to activate human TLR7 and/or TLR8 was assessed in a cellular reporter assay using HEK293 cells transiently transfected with a TLR7 or TLR8 expression vector and NFκB-luc reporter construct.
(§2) Briefly, HEK293 cells were grown in culture medium (DMEM supplemented with 10% FCS and 2 mM Glutamine). For transfection of cells in 15 cm dishes, cells were detached with Trypsin-EDTA, transfected with a mix of CMV-TLR7 or TLR8 plasmid (1700 ng), NFκB-luc plasmid (850 ng) and a transfection reagent and incubated for 48 h at 37° C. in a humidified 5% CO2 atmosphere. Transfected cells were then washed in PBS, detached with Trypsin-EDTA and resuspended in medium to a density of 1.25×10^5 cells/mL. Forty microliters of cells were then dispensed into each well in 384-well plates, where 200 nL of compound in 100% DMSO was already present. Following 6 hours incubation at 37° C., 5% CO2, the luciferase activity was determined by adding 15 μL of Steady Lite Plus substrate (Perkin Elmer) to each well and readout performed on a ViewLux ultraHTS microplate imager (Perkin Elmer). Dose response curves were generated from measurements performed in quadruplicates. Lowest effective concentrations (LEC) values, defined as the concentration that induces an effect which is at least two fold above the standard deviation of the assay, were determined for each compound.

human TLR7 = target: T2, human TLR7 (Homo sapiens, UniProt Q9NYK1); test: TLR7 cellular reporter assay (HEK293, NFκB-luc); settings: lowest effective concentration; HEK293 transiently transfected with TLR7 and NFκB-luc; 6 hours incubation
T2 construct: expressed in transfected cells; host or cells: HEK293
T2 sequence (Q9NYK1 27-1049): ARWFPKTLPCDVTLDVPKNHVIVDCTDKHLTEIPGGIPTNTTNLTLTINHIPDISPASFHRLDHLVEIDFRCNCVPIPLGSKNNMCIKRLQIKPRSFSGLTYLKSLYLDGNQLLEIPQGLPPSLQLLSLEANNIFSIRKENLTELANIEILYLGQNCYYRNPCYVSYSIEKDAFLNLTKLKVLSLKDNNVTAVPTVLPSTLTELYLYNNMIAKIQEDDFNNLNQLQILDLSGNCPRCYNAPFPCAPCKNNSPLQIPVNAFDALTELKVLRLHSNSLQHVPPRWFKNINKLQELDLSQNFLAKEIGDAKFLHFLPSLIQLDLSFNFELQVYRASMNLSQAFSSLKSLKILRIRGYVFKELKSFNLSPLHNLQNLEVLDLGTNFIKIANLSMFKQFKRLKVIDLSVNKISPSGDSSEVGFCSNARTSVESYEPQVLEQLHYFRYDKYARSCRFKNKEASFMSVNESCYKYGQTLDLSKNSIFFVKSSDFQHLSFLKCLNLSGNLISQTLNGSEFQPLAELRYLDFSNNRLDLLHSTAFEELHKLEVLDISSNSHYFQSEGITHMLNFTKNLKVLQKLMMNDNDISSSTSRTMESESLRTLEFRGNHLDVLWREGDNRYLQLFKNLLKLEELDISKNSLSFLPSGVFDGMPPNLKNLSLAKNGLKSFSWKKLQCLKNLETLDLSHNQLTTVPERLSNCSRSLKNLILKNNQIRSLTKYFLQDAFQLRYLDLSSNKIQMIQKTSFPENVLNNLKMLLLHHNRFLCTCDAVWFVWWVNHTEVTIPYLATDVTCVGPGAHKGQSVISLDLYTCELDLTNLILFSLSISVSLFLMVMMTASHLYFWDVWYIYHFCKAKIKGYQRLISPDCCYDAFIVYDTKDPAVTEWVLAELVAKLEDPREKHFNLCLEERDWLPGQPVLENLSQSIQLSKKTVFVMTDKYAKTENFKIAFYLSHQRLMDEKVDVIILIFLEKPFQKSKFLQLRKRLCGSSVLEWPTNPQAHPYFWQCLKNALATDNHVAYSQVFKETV
Method: as §1, §2

[1] = system: interferon-stimulated responsive elements (ISRE); test: Activation of ISRE promoter elements by conditioned media from PBMC (HEK-ISREluc); settings: compound concentration applied to PBMCs overnight; supernatant on HEK-ISREluc cells 24 hours
Method: The potential of compounds to induce IFN-I was also evaluated by measuring the activation of interferon-stimulated responsive elements (ISRE) by conditioned media from PBMC. The ISRE element of sequence GAAACTGAAACT (SEQ ID NO: 1) is highly responsive to the STAT1-STAT2-IRF9 transcription factor, activated upon binding of IFN-I to their receptor IFNAR (Clontech, PT3372-5W). The plasmid pISRE-Luc from Clontech (ref. 631913) contains 5 copies of this ISRE element, followed by the firefly luciferase ORF. A HEK293 cell line stably transfected with pISRE-Luc (HEK-ISREluc) was established to profile the conditioned PBMC cell culture media.
Briefly, PBMCs were prepared from buffy coats of at least two donors using a standard Ficoll centrifugation protocol. Isolated PBMCs were resuspended in RPMI medium supplemented with 10% human AB serum and 2×10^5 cells/well were dispensed into 384-well plates containing compounds (70 μL total volume). After overnight incubation, 10 μL of supernatant was transferred to 384-well plates containing 5×10^3 HEK-ISREluc cells/well in 30 μL (plated the day before). Following 24 hours of incubation, activation of the ISRE elements was measured by assaying luciferase activity using 40 μL/well Steady Lite Plus substrate (Perkin Elmer) and measured with ViewLux ultraHTS microplate imager (Perkin Elmer). […]

Row | Human TLR 8 (LEC) (human TLR8) | Human TLR 7 (LEC) (human TLR7) | SMILES | HEK-ISRE luc (LEC) [1]
1 | 10 µM | 3.9 µM | CCCC[C@@H](CCSC)Nc1nc(N)ncc1OC [E] | –
2 | 1.7 µM | 2.0 µM | CCCC[C@@H](CCS(C)(=O)=O)Nc1nc(N)ncc1OC [Compound 1] | 0.65 µM
3 | 9.2 µM | 1.4 µM | CCCC[C@@H](CC[S+](C)[O-])Nc1nc(N)ncc1OC (some centres unmarked) [Compound 2] | 4.8 µM
